The values below come from PubChem BioAssay AID652247 (Sanford-Burnham Center for Chemical Genomics, 2013).

pIC50: −log10 of the molar value. Active and inactive are the calls of the source. The rule behind the calls is not given here.

For the assay, the target named is NEDD8-conjugating enzyme Ubc12 (Homo sapiens) + NEDD8-activating enzyme E1 regulatory subunit (Homo sapiens) (UniProt P61081+Q13564). Put plainly: NEDD8 conjugation to CUL1 blockade – biochemical, TR-FRET, dose response (AID 652247). Particulars: in vitro CUL1 neddylation.
Chain of NEDD8-conjugating enzyme Ubc12 (Homo sapiens) + NEDD8-activating enzyme E1 regulatory subunit (Homo sapiens) (P61081 whole entry, looked up): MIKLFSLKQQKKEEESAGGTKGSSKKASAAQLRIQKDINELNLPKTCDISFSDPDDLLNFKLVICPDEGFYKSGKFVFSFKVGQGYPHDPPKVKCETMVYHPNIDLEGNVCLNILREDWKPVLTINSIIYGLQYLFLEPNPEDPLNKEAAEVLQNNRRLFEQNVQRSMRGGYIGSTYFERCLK
Chain of NEDD8-conjugating enzyme Ubc12 (Homo sapiens) + NEDD8-activating enzyme E1 regulatory subunit (Homo sapiens) (Q13564 whole entry, looked up): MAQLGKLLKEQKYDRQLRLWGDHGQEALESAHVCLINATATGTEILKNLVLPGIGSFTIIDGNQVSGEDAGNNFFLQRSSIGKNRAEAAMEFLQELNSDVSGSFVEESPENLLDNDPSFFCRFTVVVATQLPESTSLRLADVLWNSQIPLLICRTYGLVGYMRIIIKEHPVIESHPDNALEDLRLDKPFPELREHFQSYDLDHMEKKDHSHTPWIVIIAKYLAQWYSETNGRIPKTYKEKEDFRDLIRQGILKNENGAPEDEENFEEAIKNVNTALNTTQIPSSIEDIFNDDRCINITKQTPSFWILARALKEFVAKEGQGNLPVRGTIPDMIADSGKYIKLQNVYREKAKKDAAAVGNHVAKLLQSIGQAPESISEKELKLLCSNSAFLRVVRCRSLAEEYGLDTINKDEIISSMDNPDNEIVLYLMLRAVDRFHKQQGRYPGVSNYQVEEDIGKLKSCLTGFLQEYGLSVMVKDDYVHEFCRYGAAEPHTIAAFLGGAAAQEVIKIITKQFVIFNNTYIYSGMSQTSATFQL
In the case of `COc1ccc(CCNc2oc(-c3ccco3)nc2C#N)cc1`, the IC50 result was “inactive”.
The same measure, in the same setting: as for `O=C(O)CCc1ccc(-c2ccccc2)n1CC1CCCO1` (stereo not given), the entry is “inactive”.
Turning to `S=c1[nH]c2nc(Cl)c(Cl)nc2[nH]1`, the IC50 result was “inactive”.
The same measure, in the same setting: to `O=C(NCCc1ccc(Cl)cc1Cl)C1=CC=CN2CCS(=O)(=O)N=C12` belongs “inactive”; to `COc1ccccc1/C=N/NC(=O)c1ccccc1NS(=O)(=O)c1ccc(C)cc1`, “inactive”.
Still for that read-out and setting: as for `CN(C)c1ccc(/C=N/NC(=O)COc2ccccc2)cc1`, the entry is “inactive”; as for `CC1CCCC(C)N1C(=O)CN1c2cccc3cccc(c23)S1(=O)=O` (stereo not given), “inactive”; as for `O=c1[nH]c2ccccc2nc1-c1ccccc1`, “inactive”.
Take `N#Cc1ccc(/C=C2\CCn3c2nc2cc(C(=O)O)ccc2c3=O)cc1`: the pIC50 is 4.84.
For the molecule `Cc1ccc(-c2cc(-c3ccc(C)cc3)[n+](-c3ccc(C(=O)[O-])cc3)c(-c3ccc(C)cc3)c2)cc1`, the IC50 result is “inactive”.
With `COC(=O)c1nc2cc3c(cc2c(C)c1C(=O)OC)OCO3`, the IC50 result is “inactive”.
On the same count and under the same terms, to `CCN(CC)CCOC(=O)c1ccc(N/C=C(/C#N)c2nc(-c3ccc(OC)cc3)cs2)cc1` belongs > 100 µM (inactive).
As to `COc1ccc(C(=O)n2cc(C(=O)c3cc(C)ccc3O)cn2)cc1OC`, the IC50 entry is “inactive”.
Still for that read-out and setting: as for `CC(C)(C)c1ccc(/C=C2\CCn3c2nc2cc(C(=O)O)ccc2c3=O)cc1`, the entry is “inactive”.
The same measure, in the same setting: as for `O=C(Nc1ccc2c(c1)OCO2)c1cc(-c2ccc(O)cc2)on1`, the entry is “inactive”; as for `CCOC(=O)C1CCCN(c2nc3ccccc3nc2NS(=O)(=O)c2ccc(C)cc2)C1` (stereo not given), “inactive”.
As to `COc1ccc(-c2cc(C(=O)N(C)CC(=O)Nc3ccccc3Cl)c3ccccc3n2)cc1OC`, the IC50 result was “inactive”.
On to `O=C(O)c1ccc2c(=O)n3c(nc2c1)/C(=C/c1ccc(OC(F)F)cc1OC(F)F)CC3`, for which the IC50 entry was “inactive”.
Same read-out and setting: to `Cc1cccn2c(=O)c(C=NCc3ccccc3)c(NCCO)nc12` belongs “inactive”; to `CCN(CC)c1ccc(/C=N/NC(=O)C(O)c2ccccc2)cc1` (stereo not given), “inactive”; to `CCOC(=O)C1=C(COCCN)NC(C)=C(C(=O)OC)C1c1ccccc1Cl` (stereo not given), “inactive”.
Turning to `CCCN(CC(=O)Nc1ccccc1C)C(=O)c1ccc(-c2ccc(C(C)=O)cc2)o1`, the pIC50 is 4.83.
As for `COC(=O)C1=C(C)NC2=C(C(=O)C(C(=O)OC)C(c3ccc(OC)cc3)C2)C1c1ccccn1` (stereo not given), the IC50 result is “inactive”.
Same read-out and setting: to `CC1CCN(C(=O)Nc2ccc3nsnc3c2)CC1` belongs “inactive”; to `CCN(CC)c1ccc(/C=N/NC(=O)Cc2ccc(OC)c(OC)c2)cc1`, “inactive”; to `CC(=O)N1N=C2/C(=C/c3ccccc3)CCCC2C1c1ccccc1` (stereo not given), “inactive”.
Consider `NNC(=O)c1ccc(CSc2cccc3cccnc23)cc1`, for which the IC50 entry is “inactive”.
Same read-out and setting: to `COc1ccc2sc(-c3ccc(SC)cc3)c(C#CCO)c2c1` belongs “inactive”; to `COc1ccccc1N(C(=O)c1snc(C(N)=O)c1N)C(C(=O)NC1CCCC1)c1ccco1` (stereo not given), “inactive”.
`Cc1c(Cc2ccccc2)c(=O)oc2c(C)c(OCc3nn[nH]n3)ccc12`: the IC50 was > 100 µM (inactive).
For `CCN(/N=C/c1ccc(N(C)C)cc1)c1nc2ccccc2[nH]1`, the IC50 entry is “inactive”.
Same read-out and setting: as for `O=C(NC1CCCCC1)C(c1ccncc1)n1c(=O)c(-c2ccccc2)nc2ccccc21` (stereo not given), the entry is “inactive”; as for `CC(=CCOc1ccc2ccc(=O)oc2c1)C1=CC(=O)C(C)(C)O1`, “inactive”; as for `COC(=O)C1=C(C)NC2=C(C(=O)CCC2)C1c1ccc(-c2ccsc2C(=O)OC)o1` (stereo not given), “inactive”.
For `Cc1cc(C)n2nc(-c3cnn(C)c3C(F)(F)F)cc2n1`, the IC50 result is “inactive”.
Still for that read-out and setting: to `COc1ccc(OC)c(C=NNC(=O)c2ccc(NS(=O)(=O)c3cccs3)cc2)c1` belongs “inactive”; to `COCCN1C=C(C(=O)OC)C(c2ccc3c(c2)OCO3)C(C(=O)OC)=C1`, “inactive”; to `CC(C(=O)NCC1CCCO1)N(C(=O)c1snc(C(N)=O)c1N)c1cccc(F)c1` (stereo not given), “inactive”.
Still for that read-out and setting: as for `CCOc1cc(/C=C/C(=O)Nc2ccc(C(=O)NCCN(CC)CC)cc2)ccc1OCC(C)C`, the entry is “inactive”; as for `CN(C)CCNc1nc(-c2ccco2)c2c(c1C#N)CC(C)(C)OC2`, “inactive”; as for `COc1cc2sc(-c3ccc(S(C)(=O)=O)cc3)c(C#CCO)c2cc1OC`, “inactive”.
Still for that read-out and setting: to `CCOCCCn1c(=NC(=O)c2cccnc2)c(C(=O)OCC)cc2c(=O)n3ccccc3nc21` belongs “inactive”.
Turning to `Cn1nc(/C=C/c2ccccc2)ccc1=O`, the IC50 entry is “inactive”.
On the same count and under the same terms, as for `Cc1ccc2c(c1)COc1c3ccc(C(=O)NCC4CC4)cc3nn1-2`, the entry is “inactive”; as for `O=C(CCCc1c[nH]c2ccccc12)N1CCN(c2ccc(N3CCOCC3)nn2)CC1`, “inactive”.
Same read-out and setting: as for `COc1ccc(C(C(=O)NCC2CCCO2)N(C(=O)c2snc(C(N)=O)c2N)c2ccccc2)cc1OC` (stereo not given), the entry is “inactive”; as for `NC(=O)C1CCN(C(=O)c2ccc3nc(-c4ccccc4)c(-c4ccccc4)nc3c2)CC1`, “inactive”; as for `CCOc1ccccc1NC(=O)CN1c2cccc3cccc(c23)S1(=O)=O`, “inactive”.
On the same count and under the same terms, to `Cc1cccn2c(=O)c3cc(C(=O)N4CCCCC4C)sc3nc12` (stereo not given) belongs “inactive”.
As for `C[n+]1ccc(-c2ccccc2)c2ccccc21`, the IC50 is > 100 µM (inactive).
The same measure, in the same setting: as for `COC(=O)CSc1ccc2c(N)c(C(=O)OC)sc2c1`, the entry is “inactive”.
The same measure, in the same setting: to `COc1ccc(-c2cc(=O)c3cc(O)ccc3o2)cc1` belongs “inactive”.
On the same count and under the same terms, as for `Nc1c2c(=O)oc(-c3ccccc3)cc2nn1-c1ccccc1`, the entry is “inactive”; as for `CCOC(=O)c1cc2c(=O)n3ccccc3nc2n(C(C)C)c1=NC(=O)c1ccncc1`, “inactive”; as for `O=C(CN1c2cccc3cccc(c23)S1(=O)=O)NCc1ccc(F)cc1`, “inactive”.
As to `CCN(CC)c1ccc(/C=N/NC(=O)CNC(=O)c2cccs2)cc1`, the negative-log IC50 (pIC50) is 4.83.
On to `CN=Cc1c(NC)nc2c(C)cccn2c1=O`, for which the IC50 result was “inactive”.
The same measure, in the same setting: to `CCOc1ccc(C(=O)N/N=C/c2ccc(-c3ccc(S(=O)(=O)Nc4ncccn4)cc3)o2)cc1` belongs “inactive”; to `C=CCNC(=S)N/N=C/c1ccc(N(CC)Cc2ccccc2)cc1`, “inactive”; to `c1ccc(-c2oc3ncnc(NCCCN4CCOCC4)c3c2-c2ccccc2)cc1`, “inactive”.
Regarding `CCN1CCN(C(=O)c2ccc3nc(-c4ccccc4)c(-c4ccccc4)nc3c2)CC1`, the IC50 result was “inactive”.
Regarding `CC(=O)OCCc1c2ccccc2c(CCCN(C)C)c2ccccc12`, the pIC50 was 4.92.
`O=C(N/N=C/c1c(O)n(-c2ccccc2Cl)c(=O)c2ccccc12)C1COc2ccccc2O1` (stereo not given): the IC50 result was “inactive”.
Same read-out and setting: to `COCCN(C(=O)COC(=O)c1cc2ccccc2cc1OC)c1c(N)n(Cc2ccccc2)c(=O)[nH]c1=O` belongs “inactive”.
Same read-out and setting: to `Cc1cccc(OCC(=O)N/N=C/c2ccc(N(C)C)cc2)c1` belongs “inactive”; to `COc1ccc(-c2cc(C(=O)N3CCN(c4ccccc4O)CC3)c3ccccc3n2)cc1OC`, “inactive”.
Still for that read-out and setting: to `Cc1csc(NC(=O)c2cc(=O)[nH]c3ccc(S(=O)(=O)N4CCOCC4)cc23)n1` belongs “inactive”.
Take `CC(=O)Nc1ccc(NC(=O)c2cc(-c3ccc(C)cc3O)n[nH]2)cc1`: the pIC50 was 5.01.
Regarding `C(=C\c1ccc2nncn2c1)/c1ccccc1`, the IC50 result is “inactive”.
In the case of `CCN(CC)c1ccc(/C=N/NC(=O)C2CC2)cc1`, the IC50 entry was “inactive”.
As for `Cc1ccc2nc(-c3ccc(NC(=O)COCC(=O)O)cc3)sc2c1`, the IC50 is > 100 µM (inactive).
The same measure, in the same setting: as for `COCCNC(=O)CSc1ccc(-c2nc3ccccc3[nH]2)cn1`, the entry is “inactive”; as for `COc1cc2c(cc1OC)-c1cc(NCc3ccccn3)nc(=O)n1CC2`, “inactive”; as for `COCCNC(=O)COC(=O)c1cc(-c2ccc(OC)cc2)nc2ccccc12`, “inactive”.
With `COc1cc(OC)cc(-c2oc3cccnc3c2C#CCCO)c1`, the IC50 entry is “inactive”.
Same read-out and setting: as for `C=CCN1C(=O)C(CC(=O)O)S/C1=N/N=C/c1ccc(N(CC)CC)cc1` (stereo not given), the entry is “inactive”; as for `Cc1cccc(C)c1NC(=O)C(c1ccncc1)n1c(=O)c(-c2ccccc2)nc2ccccc21` (stereo not given), “inactive”; as for `COc1cc(/C=N/Nc2nc3ccccc3[nH]2)cc(Br)c1OCC(=O)N(C)C`, “inactive”.
Take `CCNC(=O)/C(C#N)=C/c1c(N2CCN(c3ccccc3)CC2)nc2ccccn2c1=O`: the IC50 entry is “inactive”.
Still for that read-out and setting: to `CCc1c(C)c2ccc(OC(C)C(=O)NC(Cc3c[nH]c4ccc(O)cc34)C(=O)O)c(C)c2oc1=O` (stereo not given) belongs “inactive”.
Still for that read-out and setting: as for `COc1ccc(-c2cn3cccnc3n2)cc1NC(=O)c1cccs1`, the entry is “inactive”; as for `O=C(O)c1cc(N2CCCCC2)nc2ccccc12`, “inactive”.
As to `CCn1c(=O)c(-c2ccccc2)c(O)c2ccccc21`, the negative-log IC50 (pIC50) is 4.77.
`O=c1c[n+]([O-])c2ccccc2n1OCc1c(F)cccc1F`: the IC50 entry was “inactive”.
Consider `O=C(O)c1ccc(/C=N/NC(=O)c2ccc(CN3c4cccc5cccc(c45)S3(=O)=O)cc2)cc1`, for which the IC50 entry was “inactive”.
Take `Cc1cc(C)cc(N(CC(=O)NC2CCCC2)C(=O)C2(C)CC(=O)N=C3C=CC=CN32)c1` (stereo not given): the IC50 result was “inactive”.
`COC(=O)c1ccc(-c2ccc(/C=N/NC(=O)CC3(C)OCCCO3)o2)cc1`: the IC50 result is “inactive”.
Still for that read-out and setting: as for `CSc1cnc2c(=O)n(C)c(=O)[nH]c2n1`, the entry is “inactive”; as for `CCN(CC)CCNC(=O)Cn1c(-c2ccccn2)nc2ccccc21`, “inactive”.
On the same count and under the same terms, as for `CCCc1c(O)c2ccccc2[nH]c1=O`, the entry is “inactive”.
